Key:
Assay type in all cases: cell-based
[1] = biological target: T1, human adrenergic receptor (ADR) α1A (Homo sapiens, UniProt P35348); assay: ADRα1A activation, Ca2+ influx (Fluo-8) in overexpressing chem-1 cells; settings: for ADRα1A Emax: % of maximal signal obtained by adrenaline, average (95% CI); for EC50: Ca2+ response, chem-1 cells, average (95% confidence interval), 7–9 experiments; for Emax: Chem-1
T1 construct: host or cells: rat chem-1 cells
T1 sequence (P35348 1-466): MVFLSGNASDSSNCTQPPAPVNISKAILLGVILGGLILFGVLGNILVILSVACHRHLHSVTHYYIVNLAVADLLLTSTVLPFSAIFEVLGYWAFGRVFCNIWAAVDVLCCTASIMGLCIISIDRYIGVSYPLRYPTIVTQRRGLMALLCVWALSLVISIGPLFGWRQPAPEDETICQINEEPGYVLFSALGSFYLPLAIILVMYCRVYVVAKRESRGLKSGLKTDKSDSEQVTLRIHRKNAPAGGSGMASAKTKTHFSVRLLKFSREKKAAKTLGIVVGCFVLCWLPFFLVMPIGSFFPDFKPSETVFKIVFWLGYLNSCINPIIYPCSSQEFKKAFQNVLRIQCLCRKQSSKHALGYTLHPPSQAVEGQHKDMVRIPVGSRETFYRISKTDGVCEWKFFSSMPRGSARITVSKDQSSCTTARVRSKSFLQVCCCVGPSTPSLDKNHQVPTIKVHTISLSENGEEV

[2] = biological target: T2, human adrenergic receptor (ADR) α1B (Homo sapiens, UniProt P35368); assay: ADRα1B activation, Ca2+ influx (Fluo-8) in overexpressing chem-1 cells; settings: for ADRα1B Emax: % of maximal signal obtained by adrenaline, average (95% CI); for Emax: Chem-1, read-out: ADRα1B Emax
T2 construct: host or cells: rat chem-1 cells
T2 sequence (P35368 1-520): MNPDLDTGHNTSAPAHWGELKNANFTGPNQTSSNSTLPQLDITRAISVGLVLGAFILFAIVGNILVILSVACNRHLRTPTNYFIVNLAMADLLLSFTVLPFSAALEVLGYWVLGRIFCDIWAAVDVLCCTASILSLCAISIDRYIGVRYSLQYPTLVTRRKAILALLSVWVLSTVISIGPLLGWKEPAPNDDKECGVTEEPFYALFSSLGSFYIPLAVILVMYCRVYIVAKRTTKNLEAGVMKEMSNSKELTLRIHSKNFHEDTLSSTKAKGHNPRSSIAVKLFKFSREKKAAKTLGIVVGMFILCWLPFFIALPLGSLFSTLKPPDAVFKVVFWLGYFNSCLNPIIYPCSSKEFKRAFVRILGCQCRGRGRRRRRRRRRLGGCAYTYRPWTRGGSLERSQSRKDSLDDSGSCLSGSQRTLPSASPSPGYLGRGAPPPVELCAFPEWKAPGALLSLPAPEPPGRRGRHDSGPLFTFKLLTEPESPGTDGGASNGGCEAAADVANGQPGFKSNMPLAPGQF
Source text: Cells overexpressing human ADRs α1A, α1B, α1D, α2A, α2B, β1 and β2 (Eurofins Discovery Services, St. Charles, MO, USA, product numbers: HTS087RTA, HTS158RTA, HTS216RTA, HTS096RTA, HTS157LRTA, HTS104RTA and HTS073RTA, respectively) were used to study the potency (EC50) and efficacy (Emax) of the selected compounds for these receptors by quantifying Ca^2+ influx upon receptor activation. ADRα1A, α1B, α1D, α2A, β1 and β2 were overexpressed in rat chem-1 cells. ADRα2B was overexpressed in HEK293 cells. The cells were seeded (10,000–50,000 cells/well) in a black 96-well plate (VWR International, Leuven, Belgium) and incubated at 37 °C and 5% CO2 for 24 h. After 24 h, the cells were washed with Hank’s balanced salt solution (HBSS) (Gibco, Paisley, UK) containing 0.35 g/L sodium bicarbonate and incubated with 5 µg/mL Fluo-8 AM in HBSS (pH 7.4) supplemented with 2.5 mM probenecid for 1 h. […] Peak tops of the obtained fluorescence response–time curves were corrected for baseline fluorescence and used to construct concentration–response relationships.
Concentration–response relationships for TAAR1 activation are presented as percentages of the maximal intracellular cAMP level induced by full the TAAR1 agonist phenethylamine and corrected for baseline cAMP accumulation. […] Experiments were run in duplicate in 7–9 independent experiments for ADR and were run in 3–5 independent experiments for TAAR1.

[3] = biological target: T3, human adrenergic receptor (ADR) β2 (Homo sapiens, UniProt P07550); assay: ADRβ2 activation, Ca2+ influx (Fluo-8) in overexpressing chem-1 cells; settings: for ADRβ2 Emax: % of maximal signal obtained by adrenaline, average (95% CI); for EC50: Ca2+ response, chem-1 cells, average (95% confidence interval), 7–9 experiments
T3 construct: host or cells: rat chem-1 cells

[4] = biological target: T4, human trace amine-associated receptor 1 (TAAR1) (Homo sapiens, UniProt Q96RJ0); assay: TAAR1 activation, intracellular cAMP (ELISA) in HEK293T cells stably expressing human TAAR1; settings: for EC50: cAMP, HEK293T-hTAAR1 cells, 1 h exposure, average (95% confidence interval), 3–5 experiments; for Emax at 300 µM / Emax: HEK-293T; for Emax at 300 µM: read-out: TAAR1 effect at 300 µM, at 300 µM, % of the maximal effect obtained by phenethylamine, compounds that showed only an effect at 300 µM
T4 construct: expressed in transfected cells
T4 sequence (Q96RJ0 1-339): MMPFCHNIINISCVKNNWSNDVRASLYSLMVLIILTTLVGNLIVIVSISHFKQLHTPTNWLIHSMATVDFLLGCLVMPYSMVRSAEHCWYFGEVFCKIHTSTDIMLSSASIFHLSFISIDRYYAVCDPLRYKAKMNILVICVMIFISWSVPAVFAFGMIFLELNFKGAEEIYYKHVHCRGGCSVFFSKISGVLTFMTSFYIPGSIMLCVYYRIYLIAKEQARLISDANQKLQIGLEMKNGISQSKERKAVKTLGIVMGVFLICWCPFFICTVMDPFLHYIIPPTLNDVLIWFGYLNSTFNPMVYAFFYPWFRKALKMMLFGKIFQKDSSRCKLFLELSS
Procedure: The cells were seeded (90,000–250,000 cells/well) in a 48-well plate two days before the assay. Two hours before the assay, the cells were incubated with the culture medium containing 10% charcoal-stripped foetal bovine serum (Gibco, Grand Island, NY, USA). The assay was performed in Earle’s balanced salt solution (EBSS) (Gibco, Paisley, UK), containing 15 mM HEPES (Gibco, Paisley, UK), 1 mM IBMX and 0.02% ascorbic acid. First, the cells were pre-incubated for 20 min in the supplemented buffer. Subsequently, the cells were exposed to the test compounds for 1 h in an incubator at 37 °C with 5% CO2. After 1 h, the buffer was discarded and the cells were lysed with 3% trichloroacetic acid and incubated at room temperature on a plate shaker for 2 h. Cell lysates were further diluted and cAMP was measured using a cAMP ELISA kit (Cayman Chemical, Ann Arbor, MI, USA), according to the manufacturer’s protocol.
Concentration–response relationships are shown as mean ± SD.

[5] = % of maximal cAMP level obtained by phenethylamine, average (95% CI)

T3 sequence (P07550 whole entry): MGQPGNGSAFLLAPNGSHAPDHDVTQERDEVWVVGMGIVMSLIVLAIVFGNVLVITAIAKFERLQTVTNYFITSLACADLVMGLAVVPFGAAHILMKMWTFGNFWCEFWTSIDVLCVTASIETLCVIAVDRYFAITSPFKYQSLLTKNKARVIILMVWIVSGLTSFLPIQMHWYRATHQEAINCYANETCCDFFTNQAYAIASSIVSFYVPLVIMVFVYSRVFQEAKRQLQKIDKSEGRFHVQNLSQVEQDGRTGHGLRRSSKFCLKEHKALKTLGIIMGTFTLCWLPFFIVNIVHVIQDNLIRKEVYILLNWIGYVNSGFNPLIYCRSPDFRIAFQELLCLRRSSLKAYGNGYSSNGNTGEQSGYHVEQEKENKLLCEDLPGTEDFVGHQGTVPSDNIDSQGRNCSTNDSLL

SMILES	ADRα1A Emax [1]	EC50 [1]	EC50 [2]	ADRα1B Emax [2]	ADRβ2 Emax [3]	EC50 [3]	EC50 [4]	Emax at 300 µM [4]	Emax [2]	Emax [4, 5]	Emax [1]	Emax ([3]; Chem-1)	potency at ADRβ2, times less potent than adrenaline ([3]; relative to the full agonist adrenaline)	TAAR1 Emax [4, 5]	activation of TAAR1 ([4]; concentrations up to 300 µM)
CC(C)CC(C)N (centres unmarked)	-	> 300 µM	> 300 µM	-	-	> 300 µM	> 300 µM								
CC(C)CCCC(C)N (centres unmarked)	-	> 300 µM	> 300 µM	-	-	> 300 µM	> 300 µM	36%							
CCC(C)CC(C)N (centres unmarked) [1,3-Dimethylamylamine, 1,3-dimethylamylamine]	-	> 300 µM	> 300 µM	-	-	> 300 µM	> 300 µM	52%							
CN(C)CCO [Dimethylaminoethanol, dimethylaminoethanol]	-	> 300 µM	> 300 µM	-	-	> 300 µM	> 300 µM	~5%							
CN(C)CCc1ccccc1 [Dimethylphenethylamine, N,N-dimethylphenethylamine]	-	> 300 µM	6.1 µM		-	> 300 µM	21 µM		19%	64%					
CNCC(O)c1ccccc1 (centres unmarked) [Halostachine, halostachine]		8.7 µM	1.1 µM		-	> 300 µM	74 µM		77%	104%	59%				
Oc1ccc(CC2NCCc3cc(O)c(O)cc32)cc1 (centres unmarked) [Higenamine, higenamine]	-	> 300 µM	> 300 µM	-		0.47 µM	0.98 µM			93%		31%	seven		
CN(C)CCc1ccc(O)cc1 [Hordenine, hordenine]	-	> 300 µM	5.7 µM		-	> 300 µM	47 µM		37%	82%					
CC(C)NCC(O)c1ccc(O)cc1 (centres unmarked) [Isopropyloctopamine, isopropyloctopamine]	-	> 300 µM	> 300 µM	-	-	> 300 µM	1.8 µM			40%					
CNC(C)C(O)c1ccc(O)cc1 (centres unmarked) [Methylsynephrine]		44 µM	> 300 µM	-	-	> 300 µM	> 300 µM				16%			-	did not activate
NCCc1ccccc1 [Phenethylamine, phenethylamine]	-	> 300 µM	> 300 µM	-	-	> 300 µM	8.8 µM			97%					
NCCc1ccc(O)cc1 [Tyramine, tyramine]	-	> 300 µM	> 300 µM	-	-		9.5 µM			77%					
NCC(O)c1ccc(O)cc1 (centres unmarked) [p-Octopamine, p-octopamine]		11 µM	3.9 µM		-	> 300 µM	46 µM		94%	85%	87%				
CNCC(O)c1ccc(O)cc1 (centres unmarked) [p-Synephrine, p-synephrine]		2.4 µM			-	> 300 µM	92 µM		91%	85%	82%				
CC(CN)c1ccccc1 (stereo not drawn) [β-Methylphenethyl-amine, beta-methylphenethylamine]	-	> 300 µM	> 300 µM	-	-	> 300 µM	2.1 µM			77%					

Reference: PMC11174489, “In Vitro Activation of Human Adrenergic Receptors and Trace Amine-Associated Receptor 1 by Phenethylamine Analogues Present in Food Supplements” (Nutrients, 2024)
